In ChEMBL document CHEMBL5096235, “In Silico Exploration and Biological Evaluation of Bispecific Peptides Derived from Anti-HER2 Antibodies and Peptide-Camptothecin Conjugates for HER2-Positive Breast Cancer” (J Med Chem, 2022):
Active and inactive are the calls of the source. The calls are words filed in the database; no cut-off is given here. Residues, ends and D or L forms follow the SMILES beside them. *: point of attachment. X1 = CC[C@@]1(OC(=O)CCCCCN2CC(=O)C(*)C2=O)C(=O)OCc2c1cc1n(c2=O)Cc2cc3ccccc3nc2-1; X2 = CC[C@@]1(OC(=O)CCS*)C(=O)OCc2c1cc1n(c2=O)Cc2cc3ccccc3nc2-1

Columns and labels:
[1] = biological target: T1, Receptor tyrosine-protein kinase erbB-2 (Homo sapiens, UniProt P04626); assay: Binding affinity to recombinant HER2 (unknown origin) assessed as dissociation constant by SPR analysis
[2] = Metabolic stability in Sprague-Dawley rat plasma assessed as half life incubated for 120 mins by LC-MS/MS analysis; format: ADME, cell-free
[3] = Metabolic stability in Sprague-Dawley rat plasma assessed as drug degradation incubated for 120 mins by LC-MS/MS analysis; format: ADME, cell-free; conditions: 2 h
[4] = test system: SK-BR-3; assay: Cytotoxicity against HER-positive human SK-BR-3 cells assessed as inhibition of cell growth incubated for 48 hrs by MTT assay; format: functional, cell-based; conditions: SK-BR-3, 48 h
[5] = test system: NCI-N87; assay: Cytotoxicity against HER-positive human NCI-N87 cells assessed as inhibition of cell growth incubated for 48 hrs by MTT assay; format: functional, cell-based; conditions: NCI-N87, 48 h
[6] = test system: SK-OV-3; assay: Cytotoxicity against HER-positive human SK-OV-3 cells assessed as inhibition of cell growth incubated for 48 hrs by MTT assay; format: functional, cell-based; conditions: SK-OV-3, 48 h
[7] = Cytotoxicity against human MCF-10A cells assessed as inhibition of cell growth incubated for 48 hrs by MTT assay; format: toxicity, cell-based
[8] = test system: MDA-MB-231; assay: Cytotoxicity against HER-negative human MDA-MB-231 cells assessed as inhibition of cell growth incubated for 48 hrs by MTT assay; format: functional, cell-based; conditions: MDA-MB-231, 48 h
[9] = biological target: T1, Receptor tyrosine-protein kinase erbB-2; assay: Binding affinity to HER2 in HER-positive human SK-BR-3 cells assessed as increase in fluorescence intensity at 25 uM by Hoechst 33342 staining based confocal microscopic analysis; format: cell-based

T1 sequence (P04626 whole entry): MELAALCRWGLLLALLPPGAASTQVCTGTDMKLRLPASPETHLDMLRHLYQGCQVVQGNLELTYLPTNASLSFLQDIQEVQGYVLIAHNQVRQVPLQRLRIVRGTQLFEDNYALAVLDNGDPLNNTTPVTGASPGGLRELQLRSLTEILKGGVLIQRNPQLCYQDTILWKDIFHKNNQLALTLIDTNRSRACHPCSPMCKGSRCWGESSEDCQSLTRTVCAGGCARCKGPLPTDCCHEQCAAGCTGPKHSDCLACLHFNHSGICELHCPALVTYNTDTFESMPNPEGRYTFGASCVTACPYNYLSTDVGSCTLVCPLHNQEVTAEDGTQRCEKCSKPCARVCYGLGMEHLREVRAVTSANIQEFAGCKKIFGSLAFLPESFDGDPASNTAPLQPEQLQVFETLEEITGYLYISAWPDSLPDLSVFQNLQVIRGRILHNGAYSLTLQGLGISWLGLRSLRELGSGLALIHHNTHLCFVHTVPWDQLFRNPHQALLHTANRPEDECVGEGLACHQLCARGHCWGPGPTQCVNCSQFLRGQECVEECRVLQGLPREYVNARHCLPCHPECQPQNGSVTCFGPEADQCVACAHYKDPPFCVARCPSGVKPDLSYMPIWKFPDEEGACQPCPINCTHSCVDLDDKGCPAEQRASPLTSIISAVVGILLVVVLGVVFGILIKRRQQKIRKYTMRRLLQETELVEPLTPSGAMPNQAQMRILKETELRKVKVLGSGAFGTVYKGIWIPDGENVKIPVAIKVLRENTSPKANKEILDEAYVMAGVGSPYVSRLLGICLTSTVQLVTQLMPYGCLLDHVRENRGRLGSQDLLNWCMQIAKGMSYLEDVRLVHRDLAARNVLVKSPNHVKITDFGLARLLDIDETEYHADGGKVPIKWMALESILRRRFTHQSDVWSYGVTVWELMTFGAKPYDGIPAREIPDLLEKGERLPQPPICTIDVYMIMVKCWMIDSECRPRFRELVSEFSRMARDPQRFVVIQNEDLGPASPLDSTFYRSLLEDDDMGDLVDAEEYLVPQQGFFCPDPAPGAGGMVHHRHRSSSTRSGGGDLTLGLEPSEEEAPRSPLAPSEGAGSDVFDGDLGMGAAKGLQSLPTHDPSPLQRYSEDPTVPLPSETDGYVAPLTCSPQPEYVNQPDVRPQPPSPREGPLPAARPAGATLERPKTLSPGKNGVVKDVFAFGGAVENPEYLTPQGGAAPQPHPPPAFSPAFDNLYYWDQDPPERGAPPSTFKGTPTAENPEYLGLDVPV

Compound | Kd [1] [µM] | IC50 [4] [µM] | IC50 [5] [µM] | IC50 [6] [µM] | IC50 at 48 h [7] [µM] | IC50 [8] [µM] | further results
CC[C@H](C)[C@H](NC(=O)[C@H](CCCNC(=N)N)NC(=O)CNC(=O)[C@H](CS)NC(=O)CNC(=O)[C@H](CCCCN)NC(=O)[C@H](Cc1ccccc1)NC(=O)[C@H](CCCNC(=N)N)NC(=O)[C@H](CCC(N)=O)NC(=O)[C@H](CC(N)=O)NC(=O)[C@H](Cc1ccc(O)cc1)NC(=O)[C@H](Cc1c[nH]c2ccccc12)NC(=O)[C@H](CO)NC(=O)[C@H](CCCNC(=N)N)NC(=O)CNC(=O)[C@H](Cc1c[nH]c2ccccc12)NC(=O)[C@H](CC(N)=O)NC(=O)[C@@H]1CCCN1C(=O)[C@@H](N)CC(N)=O)C(=O)N[C@@H](CCCCN)C(=O)N1CCC[C@H]1C(=O)N[C@@H](CCCNC(=N)N)C(=O)N[C@@H](CCCCN)C(=O)NCC(=O)N[C@@H](Cc1ccc(O)cc1)C(=O)N[C@H](C(=O)N[C@@H](CCCNC(=N)N)C(=O)O)[C@@H](C)O (H-NPNWGRSWYNQRFKGCGRIKPRKGYTR-OH) | 0.151 |  |  |  |  |  | half-life [2]: 15 min; Stability [3]: Unstable
CC[C@H](C)[C@H](NC(=O)[C@@H](N)CCCNC(=N)N)C(=O)N[C@@H](CCCCN)C(=O)N1CCC[C@H]1C(=O)N[C@@H](CCCNC(=N)N)C(=O)N[C@@H](CCCCN)C(=O)NCC(=O)N[C@@H](Cc1ccc(O)cc1)C(=O)N[C@H](C(=O)N[C@@H](CCCNC(=N)N)C(=O)NCC(=O)N[C@@H](CSSCCC(=O)O[C@]1(CC)C(=O)OCc2c1cc1n(c2=O)Cc2cc3ccccc3nc2-1)C(=O)NCC(=O)N[C@@H](CC(N)=O)C(=O)N1CCC[C@H]1C(=O)N[C@@H](CC(N)=O)C(=O)N[C@@H](Cc1c[nH]c2ccccc12)C(=O)NCC(=O)N[C@@H](CCCNC(=N)N)C(=O)N[C@@H](CO)C(=O)N[C@@H](Cc1c[nH]c2ccccc12)C(=O)N[C@@H](Cc1ccc(O)cc1)C(=O)N[C@@H](CC(N)=O)C(=O)N[C@@H](CCC(N)=O)C(=O)N[C@@H](CCCNC(=N)N)C(=O)N[C@@H](Cc1ccccc1)C(=O)N[C@@H](CCCCN)C(N)=O)[C@@H](C)O (H-RIKPRKGYTRGC(X2)GNPNWGRSWYNQRFK-NH2) |  | 6.42 | 5.76 | 6.25 | 20.4 | 10.9 | 
CC[C@H](C)[C@H](NC(=O)[C@@H](N)CCCNC(=N)N)C(=O)N[C@@H](CCCCN)C(=O)N1CCC[C@H]1C(=O)N[C@@H](CCCNC(=N)N)C(=O)N[C@@H](CCCCN)C(=O)NCC(=O)N[C@@H](Cc1ccc(O)cc1)C(=O)N[C@H](C(=O)N[C@@H](CCCNC(=N)N)C(=O)O)[C@@H](C)O (H-RIKPRKGYTR-OH) | 7.6 |  |  |  |  |  | 
CC[C@H](C)[C@H](NC(=O)[C@@H](N)CCCNC(=N)N)C(=O)N[C@@H](CCCCN)C(=O)N1CCC[C@H]1C(=O)N[C@@H](CCCNC(=N)N)C(=O)N[C@@H](CCCCN)C(=O)NCC(=O)N[C@@H](Cc1ccc(O)cc1)C(=O)N[C@H](C(=O)N[C@@H](CCCNC(=N)N)C(=O)NCC(=O)N[C@@H](CSC1C(=O)CN(CCCCCC(=O)O[C@]2(CC)C(=O)OCc3c2cc2n(c3=O)Cc3cc4ccccc4nc3-2)C1=O)C(=O)NCC(=O)N[C@@H](CC(N)=O)C(=O)N1CCC[C@H]1C(=O)N[C@@H](CC(N)=O)C(=O)N[C@@H](Cc1c[nH]c2ccccc12)C(=O)NCC(=O)N[C@@H](CCCNC(=N)N)C(=O)N[C@@H](CO)C(=O)N[C@@H](Cc1c[nH]c2ccccc12)C(=O)N[C@@H](Cc1ccc(O)cc1)C(=O)N[C@@H](CC(N)=O)C(=O)N[C@@H](CCC(N)=O)C(=O)N[C@@H](CCCNC(=N)N)C(=O)N[C@@H](Cc1ccccc1)C(=O)N[C@@H](CCCCN)C(N)=O)[C@@H](C)O (stereo not given in full) (H-RIKPRKGYTRGC(X1)GNPNWGRSWYNQRFK-NH2) |  | 25.4 | 15.3 | 24.4 | 35.2 | 23.1 | 
CC[C@H](C)[C@H](NC(=O)[C@@H](N)CCCNC(=N)N)C(=O)N[C@@H](CCCCN)C(=O)N1CCC[C@H]1C(=O)N[C@@H](CCCNC(=N)N)C(=O)N[C@@H](CCCCN)C(=O)NCC(=O)N[C@@H](Cc1ccc(O)cc1)C(=O)N[C@H](C(=O)N[C@@H](CCCNC(=N)N)C(=O)NCC(=O)N[C@@H](CSC1C(=O)CN(CCCCCC(=O)O[C@]2(CC)C(=O)OCc3c2cc2n(c3=O)Cc3cc4ccccc4nc3-2)C1=O)C(=O)NCC(=O)N[C@@H](CSC1C(=O)CN(CCCCCC(=O)O[C@]2(CC)C(=O)OCc3c2cc2n(c3=O)Cc3cc4ccccc4nc3-2)C1=O)C(=O)NC(=O)C[C@H](NC(=O)CN)C(=O)N1CCC[C@H]1C(=O)N[C@@H](CC(N)=O)C(=O)N[C@@H](Cc1c[nH]c2ccccc12)C(=O)NCC(=O)N[C@@H](CCCNC(=N)N)C(=O)N[C@@H](CO)C(=O)N[C@@H](Cc1c[nH]c2ccccc12)C(=O)N[C@@H](Cc1ccc(O)cc1)C(=O)N[C@@H](CC(N)=O)C(=O)N[C@@H](CCC(N)=O)C(=O)N[C@@H](CCCNC(=N)N)C(=O)N[C@@H](Cc1ccccc1)C(=O)N[C@@H](CCCCN)C(N)=O)[C@@H](C)O (stereo not given in full) |  | 6.72 | 10.9 | 20.4 | 25.2 | 28.2 | 
CC[C@H](C)[C@H](NC(=O)[C@H](CCCNC(=N)N)NC(=O)CNC(=O)[C@H](CS)NC(=O)CNC(=O)[C@H](CCCCN)NC(=O)[C@H](Cc1ccccc1)NC(=O)[C@H](CCCNC(=N)N)NC(=O)[C@H](CCC(N)=O)NC(=O)[C@H](CC(N)=O)NC(=O)[C@H](Cc1ccc(O)cc1)NC(=O)[C@H](Cc1c[nH]c2ccccc12)NC(=O)[C@H](CO)NC(=O)[C@H](CCCNC(=N)N)NC(=O)CNC(=O)[C@H](Cc1c[nH]c2ccccc12)NC(=O)[C@H](CC(N)=O)NC(=O)[C@@H]1CCCN1C(=O)[C@H](N)CC(=O)NC(=S)Nc1ccc2c(c1)C(=O)OC21c2ccc(O)cc2Oc2cc(O)ccc21)C(=O)N[C@@H](CCCCN)C(=O)N1CCC[C@@H]1C(=O)N[C@H](CCCNC(=N)N)C(=O)N[C@H](CCCCN)C(=O)NCC(=O)N[C@H](Cc1ccc(O)cc1)C(=O)N[C@@H](C(=O)N[C@H](CCCNC(=N)N)C(N)=O)[C@H](C)O |  |  |  |  |  |  | Activity [9]: Active
CC[C@H](C)[C@H](NC(=O)[C@@H](N)CCCNC(=N)N)C(=O)N[C@@H](CCCCN)C(=O)N1CCC[C@H]1C(=O)N[C@@H](CCCNC(=N)N)C(=O)N[C@@H](CCCCN)C(=O)NCC(=O)N[C@@H](Cc1ccc(O)cc1)C(=O)N[C@H](C(=O)N[C@@H](CCCNC(=N)N)C(=O)NCC(=O)N[C@@H](CSSCCC(=O)O[C@]1(CC)C(=O)OCc2c1cc1n(c2=O)Cc2cc3ccccc3nc2-1)C(=O)NCC(=O)N[C@@H](CSSCCC(=O)O[C@]1(CC)C(=O)OCc2c1cc1n(c2=O)Cc2cc3ccccc3nc2-1)C(=O)NC(=O)C[C@H](NC(=O)CN)C(=O)N1CCC[C@H]1C(=O)N[C@@H](CC(N)=O)C(=O)N[C@@H](Cc1c[nH]c2ccccc12)C(=O)NCC(=O)N[C@@H](CCCNC(=N)N)C(=O)N[C@@H](CO)C(=O)N[C@@H](Cc1c[nH]c2ccccc12)C(=O)N[C@@H](Cc1ccc(O)cc1)C(=O)N[C@@H](CC(N)=O)C(=O)N[C@@H](CCC(N)=O)C(=O)N[C@@H](CCCNC(=N)N)C(=O)N[C@@H](Cc1ccccc1)C(=O)N[C@@H](CCCCN)C(N)=O)[C@@H](C)O |  | 1.49 | 7.37 | 4.12 | 18.2 | 11.5 | 

Second part, led by results:

Kd [1] [µM] | Compound | IC50 [4] [µM] | IC50 [5] [µM] | IC50 [6] [µM] | IC50 at 48 h [7] [µM] | IC50 [8] [µM] | further results
14.3 | N=C(N)NCCC[C@H](NC(=O)[C@H](CCC(N)=O)NC(=O)[C@H](CC(N)=O)NC(=O)[C@H](Cc1ccc(O)cc1)NC(=O)[C@H](Cc1c[nH]c2ccccc12)NC(=O)[C@H](CO)NC(=O)[C@H](Cc1ccc(O)cc1)NC(=O)CNC(=O)[C@H](Cc1c[nH]c2ccccc12)NC(=O)[C@H](CC(N)=O)NC(=O)[C@@H]1CCCN1C(=O)[C@@H](N)CC(N)=O)C(=O)N[C@@H](Cc1ccccc1)C(=O)N[C@H](C=O)CCCCN (H-NPNWGYSWYNQRFK-aldehyde) |  |  |  |  |  | 
12.3 | N=C(N)NCCC[C@H](NC(=O)CNC(=O)[C@H](Cc1c[nH]c2ccccc12)NC(=O)[C@@H]1CCCN1C(=O)[C@@H]1CCCN1C(=O)[C@@H](N)CC(N)=O)C(=O)N[C@@H](CO)C(=O)N[C@@H](CCCNC(=N)N)C(=O)N[C@@H](Cc1ccc(O)cc1)C(=O)N[C@@H](CC(N)=O)C(=O)N[C@@H](CCC(N)=O)C(=O)N[C@@H](CCCNC(=N)N)C(=O)N[C@@H](Cc1ccccc1)C(=O)N[C@@H](CCCCN)C(=O)O (H-NPPWGRSRYNQRFK-OH) |  |  |  |  |  | 
9.89 | N=C(N)NCCC[C@H](NC(=O)[C@H](CCC(N)=O)NC(=O)[C@H](CC(N)=O)NC(=O)[C@H](Cc1ccc(O)cc1)NC(=O)[C@H](CCCNC(=N)N)NC(=O)[C@H](CO)NC(=O)[C@H](Cc1c[nH]c2ccccc12)NC(=O)CNC(=O)[C@H](Cc1c[nH]c2ccccc12)NC(=O)[C@H](CC(N)=O)NC(=O)[C@@H]1CCCN1C(=O)[C@@H](N)CC(N)=O)C(=O)N[C@@H](Cc1ccccc1)C(=O)N[C@@H](CCCCN)C(=O)O (H-NPNWGWSRYNQRFK-OH) |  |  |  |  |  | 
8.9 | N=C(N)NCCC[C@H](NC(=O)[C@H](CCC(N)=O)NC(=O)[C@H](CC(N)=O)NC(=O)[C@H](Cc1ccc(O)cc1)NC(=O)[C@H](Cc1c[nH]c2ccccc12)NC(=O)[C@H](CO)NC(=O)[C@H](Cc1c[nH]c2ccccc12)NC(=O)CNC(=O)[C@H](Cc1c[nH]c2ccccc12)NC(=O)[C@H](CC(N)=O)NC(=O)[C@@H]1CCCN1C(=O)[C@@H](N)CC(N)=O)C(=O)N[C@@H](Cc1ccccc1)C(=O)N[C@@H](CCCCN)C(=O)O (H-NPNWGWSWYNQRFK-OH) |  |  |  |  |  | 
5.7 | N=C(N)NCCC[C@H](NC(=O)CNC(=O)[C@H](Cc1c[nH]c2ccccc12)NC(=O)[C@H](CC(N)=O)NC(=O)[C@@H]1CCCN1C(=O)[C@@H](N)CC(N)=O)C(=O)N[C@@H](CO)C(=O)N[C@@H](Cc1c[nH]c2ccccc12)C(=O)N[C@@H](Cc1ccc(O)cc1)C(=O)N[C@@H](CC(N)=O)C(=O)N[C@@H](CCC(N)=O)C(=O)N[C@@H](CCCNC(=N)N)C(=O)N[C@@H](Cc1ccccc1)C(=O)N[C@@H](CCCCN)C(=O)O (H-NPNWGRSWYNQRFK-OH) |  |  |  |  |  | 
